Experimental data reported in the NIST ThermoML archive (doi:10.1021/je800110r).

Conditions: 303.15 K, Liquid, Vibrating tube method

CCCCCCCCCC [decane]
Conditions | mass density [kg/m3]
29181 kPa | 743.5
29208 kPa | 743.5
29234 kPa | 743.6
29258 kPa | 743.5
29278 kPa | 743.6
29302 kPa | 743.6
29320 kPa | 743.5
29341 kPa | 743.6
29363 kPa | 743.6
29384 kPa | 743.6
29402 kPa | 743.6
29426 kPa | 743.6
29444 kPa | 743.7
29466 kPa | 743.6
29484 kPa | 743.7
29502 kPa | 743.7
29530 kPa | 743.8
29548 kPa | 743.7
29575 kPa | 743.7
29600 kPa | 743.7
29618 kPa | 743.8
29640 kPa | 743.8
29658 kPa | 743.8
29685 kPa | 743.9
29703 kPa | 743.8
29722 kPa | 743.9
29747 kPa | 743.9
29774 kPa | 743.9
29790 kPa | 743.8
29812 kPa | 743.8
29828 kPa | 744
29859 kPa | 743.9
29883 kPa | 744
29905 kPa | 744
29930 kPa | 743.9
29952 kPa | 744
29967 kPa | 744
29987 kPa | 743.9
30005 kPa | 744
30023 kPa | 744.1
30051 kPa | 743.9
30077 kPa | 744.1
30099 kPa | 744
30125 kPa | 744
30150 kPa | 744.2
30169 kPa | 744.1
30198 kPa | 744.2
30220 kPa | 744.1
30248 kPa | 744.2
30267 kPa | 744.2
30290 kPa | 744.2
30322 kPa | 744.2
30348 kPa | 744.3
30374 kPa | 744.3
30397 kPa | 744.2
30420 kPa | 744.3
30443 kPa | 744.3
30468 kPa | 744.4
30491 kPa | 744.4
30516 kPa | 744.3
30533 kPa | 744.4
30553 kPa | 744.4
30582 kPa | 744.3
30601 kPa | 744.5
30621 kPa | 744.4
30644 kPa | 744.5
30665 kPa | 744.4
30695 kPa | 744.5
30715 kPa | 744.3
30739 kPa | 744.4
30762 kPa | 744.5
30789 kPa | 744.7
30809 kPa | 744.5
30833 kPa | 744.5
30853 kPa | 744.7
30884 kPa | 744.6
30908 kPa | 744.6
30931 kPa | 744.6
30956 kPa | 744.5
30980 kPa | 744.6
31007 kPa | 744.6
31031 kPa | 744.6
31062 kPa | 744.8
31083 kPa | 744.7
31111 kPa | 744.7
31134 kPa | 744.6
31157 kPa | 744.7
31178 kPa | 744.8
31212 kPa | 744.7
31231 kPa | 744.8
31252 kPa | 744.9
31271 kPa | 744.8
31293 kPa | 744.9
31311 kPa | 744.9
31327 kPa | 744.8
31348 kPa | 744.9
31363 kPa | 744.9
31381 kPa | 744.9
31400 kPa | 744.9
31425 kPa | 744.9
31446 kPa | 745
31468 kPa | 745
31490 kPa | 744.9
31515 kPa | 744.9
31540 kPa | 745
31565 kPa | 745
31588 kPa | 745
31610 kPa | 745.1
31640 kPa | 745.2
31660 kPa | 745.1
31688 kPa | 745.1
31707 kPa | 745.2
31725 kPa | 745.2
31754 kPa | 745.1
31769 kPa | 745.2
31798 kPa | 745.1
31817 kPa | 745.2
31842 kPa | 745.2
31861 kPa | 745.1
31887 kPa | 745.1
31906 kPa | 745.3
31925 kPa | 745.3
31950 kPa | 745.3
31972 kPa | 745.3
31995 kPa | 745.3
32014 kPa | 745.3
32040 kPa | 745.4
32059 kPa | 745.4
32079 kPa | 745.4
32098 kPa | 745.3
32128 kPa | 745.3
32150 kPa | 745.4
32176 kPa | 745.3
32198 kPa | 745.5
32228 kPa | 745.4
32251 kPa | 745.4
32274 kPa | 745.5
